Values after ≈ are worked out from the molar mass of the structure shown. Where a name gives a salt, the structure may show the parent alone. Read-outs that look alike come from different tables or passages of the source.

Data set [1] in a line: Solubility levels of various agents in water. Particulars: for Extent (of solubility): US Pharmacopea scale, part of solvent per part of solute; for Part H20/part solute / Solubility in Water: water; for Solubility in Water: from mg/L and MW.
Excerpt: (§1) According to US Pharmacopea standards, the scale of solubility (part of solvent per part of solute) is as follows:
The nature of a further data set: physchem. Conditions: water.
The conditions of data set [2]: cited from earlier work.

Excerpt for physchem: as §1

Regarding `CCCCN1CCCCC1C(=O)Nc1c(C)cccc1C` (centres unmarked) [Bupivicaine], in data set [1], the “Extent (of solubility)” value is reported as “very slightly soluble (1000 to 10000)”, the “Part H20/part solute” value is on record as 6720 and the “Solubility in Water” value was 8.333 mM (≈ 2400 µg/mL).
Regarding `[N]=O` [Nitric Oxide], in “physchem”, the solubility came to 2.85 mM (≈ 85.4 µg/mL). This lies in the millimolar range.
In “physchem” (Solubility in Water (mol/L)), `CCN(CC)CCNC(=O)c1ccc(N)cc1` [Procainamide] displayed a solubility of 18.6 mM (≈ 4390 µg/mL). In other words, the millimolar range.
Turning to `CCCN1CCCC[C@H]1C(=O)Nc1c(C)cccc1C` [Ropivacaine HCL], in data set [2] (HCL), the “Solubility in Water” value is 53.8 mg/mL. Further, in data set [1] (HCL), the “Extent (of solubility)” value is given as “slightly soluble (100 to 1000)”, the “Part H20/part solute” value is 342.5 and the “Solubility in Water” value turned out to be 163.5 mM.
Regarding `CCCN1CCCC[C@H]1C(=O)Nc1c(C)cccc1C` [Ropivacaine], the “Solubility in Water” value in data set [2] was 0.0576 mg/mL (≈ 210 µM). Further, in data set [1], the “Extent (of solubility)” value is “insoluble (>10000)”, the “Part H20/part solute” value worked out at 266388.8889 and the “Solubility in Water” value was 0.2102 mM (≈ 57.7 µg/mL).
In the data set “physchem” (Solubility in Water (mol/L)), `Cc1cccc(C)c1NC(=O)C(C)N` (centres unmarked) [Tocainide] registered a solubility of 55.7 mM (≈ 10700 µg/mL).

What is called solubility is how much of the substance goes into solution per volume. The low end stands for a poorly soluble substance, the high end for a readily soluble substance.

These data come from patent US11103684B2, “Systems, devices, and methods for treating a pulmonary disorder with an agent” (Holaira, Inc., priority 2013, dated 2021).
